# In patent publication US20250090557A1 (priority 2020, published 2025):
# Read-outs that look alike come from different tables or passages of the source.
# Tests used:
# [1] = cited from earlier work
# STING = STING protein levels in Calu3 cells (flow cytometry); type: cell-based, human; details: SARS-CoV-2 infected Calu3 cells, data not shown
# [2] = test system: mitochondrial reactive oxygen species (mito-ROS); type: cell-based, human
# Nrf2 = Nrf2 protein levels in Calu3 cells (flow cytometry); type: cell-based, human; details: infected and uninfected Calu3, pretreatment, data not shown
# SARS-CoV-2 [3] = assay: SARS-CoV-2 infection of air-liquid interface human airway epithelium cultures (flow cytometry); type: cell-based; details: 100 nM, 72 h
# [4] = test system: ACE2, CD147, NRP1 and TMPRSS2; assay: Host entry factor protein levels in Calu3 cells (flow cytometry); type: cell-based, human; details: Calu3, compared to uninfected cells, data not shown
# TOM70 = TOM70 protein levels in Calu3 cells (flow cytometry, immunofluorescence); type: cell-based, human
# SARS-CoV-2 [5] = assay: SARS-CoV-2 infection of HEK293T-hACE2 cells (flow cytometry); type: cell-based; details: HEK293T-hACE2, 100 nM, 72 h
# Vero cells = details: uninfected Vero cultures, 10-1000 nM
# Calu3 cells = assay: Seahorse mitochondrial respirometry and cellular bioenergetics in infected Calu3 cells
# Description: Flow cytometry was used to determine the cellular content of Calu3 cells for mitochondrial reactive oxygen species (mito-ROS) based on the median fluorescence intensity (MFI) of the fluorochrome MitoSOX Red and was compared to a negative cell population (fluorescence minus one negative control for staining) (ΔMFI). Flow cytometry was used to determine the percent of SARS-CoV-2 infected Calu3 cells positive for MitoSOX Red. Calu3 and Vero cells were treated with DMSO vehicle control (Ctrl) or the mitochondrial antioxidants MitoTEMPO (25-1000 nM) (72 h) or Mito-MES (25-1000 nM) (72 h) and were infected with a fluorescent mNeonGreen SARS-CoV-2 (icSARS-CoV-2-mNG) (MOI 0.3) (48 h). Immunofluorescent analysis of viral replication and cellular oxidative stress was performed at 48 h post-infection. […] Seahorse XF Analyzer was used to determine mitochondrial respirometry and cellular bioenergetics [oxygen consumption rate (OCR) and extracellular acidification rate (ECAR)] of live Calu3 cells treated with Mito-MES (25-1000 nM) or vehicle control (ctrl) (72 h) and infected with SARS-CoV-2 (MOI 0.1) (48 h). […] Viral replication was determined by TCID50-assay (FIG. 3-d), cell cytotoxicity was assessed by the XTT assay in uninfected cells treated with dTPP (0.01-10 μM) (72 h) (FIG. 3-e). […]
# [6] = humans, doses up to at least 80 mg/day for at least a year; cited from earlier work
# cleaved caspase 3 [7] = type: cell-based, African green monkey; details: Vero
# IL-6 = type: cell-based, African green monkey
# Keap1 = Keap1 protein levels in Calu3 cells (flow cytometry); type: cell-based, human; details: infected and uninfected Calu3, pretreatment, data not shown
# SARS-CoV-2 [8] = assay: SARS-CoV-2 infection of K18-hACE2 transgenic mice, lung viral titer; type: in vivo, mouse; details: 4 mg/kg per day intraperitoneally, 72 h post infection
# Description: K18-hACE2 transgenic mice were infected with SARS-CoV-2 (10,000 PFU per mouse) intranasally and treated with Mito-MES (4 mg/kg per day intraperitoneally) (n=10) vs vehicle control (Ctrl) (saline 1% DMSO) (n=5 mice). Five mice (n=5) were treated with Mito-MES for 48 h before SARS-COV-2 infection and throughout the infection for 3 days (5 days in total) until mice were sacrificed 72 h post infection. Five mice (n=5) were treated with Mito-MES 8 h after the infection for 3 days (3 days in total) until mice were sacrificed 72 h post infection. The left lung was harvested from all mice, tissue was homogenized in mechanical dissociator and the supernatant was cryopreserved until it was used for viral titer. Viral titer was determined by two independent methods based on cytopathic effect (CPE) effect in Vero-E6 cells and based on an ELISA immunoassay that detected the presence of SARS-CoV-2 Spike S protein in Vero-E6 cells infected with lung supernatants from infected mice. FIG. 7-a summarizes the results of the viral replication by TCID50-assay based on CPE method. FIG. 7-b summarizes the results of the viral replication by TCID50-assay based on ELISA assay. Bars indicate mean±s.e.m.
# The in vivo antiviral activity of Mito-MES was evaluated in mice. […] Specifically, K18-hACE2 transgenic mice, which express human ACE2, were infected with SARS-CoV-2.
# cleaved caspase 3 [9] = type: cell-based, human
# IL-1β = type: cell-based, human; details: infected Calu3 supernatants
structure (smiles),measurement,setting,value
"COC1=C(OC)C(=O)C(CCCCCCCCCC[P+](c2ccccc2)(c2ccccc2)c2ccccc2)=C(C)C1=O.CS(=O)(=O)[O-] [Mito-MES, 10-(4,5-dimethoxy-2-methyl-3,6-dioxo-1,4-cyclohexadienyl) decyl triphenylphosphonium methanesulfonate]",average elevation of fasting plasma concentrations,"[1]; chronic supplementation about 40-80 mg/day, after about 10 days",about 5 ng/mL
same,plasma concentration,"[1]; humans, single 40 mg oral dose, after 24 h",about 2 ng/ml
same,STING protein levels,STING,did not impact STING
same,mito-ROS generation (MitoSOX Red MFI and percent positive cells),[2],reduced mito-ROS generation
same,protein levels of Nrf2,Nrf2,did not impact protein levels of Nrf2
same,percent of SARS-CoV-2 infected FOXJ1+ ciliated epithelial cells (flow cytometry),SARS-CoV-2 [3]; ALI HAE cultures,significantly reduced the percent of SARS-CoV-2 infected human FOXJ1^+ ciliated epithelial cells
same,percent of SARS-CoV-2 infected human lung epithelial cells (flow cytometry),SARS-CoV-2 [3]; primary HAE ALI cultures,significantly reduced the percent of SARS-CoV-2 infected human lung epithelial cells
same,"protein levels of ACE2, TMPRSS2, NRP1 and CD147",[4],Neither SARS-CoV-2 infection nor Mito-MES significantly modulates
same,TOM70 protein levels (flow cytometry),TOM70,increased TOM70 protein levels
same,TOM70 protein levels (immunofluorescence),TOM70,dose-dependent increase in TOM70 protein levels
same,percent of SARS-CoV-2 infected cells (flow cytometry),SARS-CoV-2 [5],significantly reduced the percent of SARS-CoV-2 infected human non-cancerous HEK293T epithelial cells
same,cytotoxicity (XTT assay),Vero cells,no observed cytotoxicity
same,ROS,"Calu3 cells; Calu3, 1000 nM",increased ROS
same,mitochondrial respirometry,"Calu3 cells; Calu3, 50-1000 nM",reduced mitochondrial respirometry
same,adverse events,[6],without any serious adverse events
same,percent of infected cells positive for cleaved caspase 3 and MFI per cell (flow cytometry),cleaved caspase 3 [7]; 100 nM,inhibits or reduces SARS-CoV-2-induced increase
same,SARS-CoV-2-induced cleavage of caspase 3 (immunofluorescence),cleaved caspase 3 [7]; 10-1000 nM,reduced by Mito-MES treatment
same,secretion of IL-6 resulting from SARS-CoV-2 infection (ELISA),IL-6,attenuated the increase in secretion of IL-6
same,protein levels of Keap,Keap1,reduced protein levels of Keap
same,lung viral titers (TCID50 by CPE and ELISA) compared to vehicle,SARS-CoV-2 [8],viral titers were lower
same,percent of infected cells positive for cleaved caspase 3 and MFI per cell (flow cytometry),"cleaved caspase 3 [9]; Calu3, 100 nM",inhibits or reduces SARS-CoV-2-induced increase
same,SARS-CoV-2-induced cleavage of caspase 3 (immunofluorescence),"cleaved caspase 3 [9]; Calu3, 10-1000 nM",reduced by Mito-MES treatment
same,secretion of IL-1β (Luminex),IL-1β,tended (p=0.09) to reduce the secretion of IL-IP
